Consider ten compounds from ChEMBL document CHEMBL1201862, “PubChem BioAssay data set” (2004).

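Method: 48-hour compound exposure of cells in 96-well plates, five concentrations, linear interpolation of endpoints. At the GI50, growth is halved.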 The source made the active and inactive calls. Rule as the data show it: active = GI50 up to about 1.1 µM and inactive = higher.

Among the test systems are HOP-62; SK-OV-3; A549; SF-295; SNB-75; SR; TK-10; ACHN; DU-145; RPMI-8226; EKVX; Hs-578T; PC-3; A498; NCI-H460; Malme-3M; MDA-MB-231; SK-MEL-5; 786-0; M14.
Holding throughout (assay): NCI anticancer screen, dose series, 48 h

`O=C1C=CC(=O)c2c(O)ccc(O)c21` [NAPHTHAZALIN]: the GI50 in the assay with HOP-62 was 9.75 µM (inactive); in the assay with SK-OV-3 it was 12.7 µM (inactive); in the assay with A549, 8.95 µM (inactive); with SF-295 it was 7.91 µM (inactive); in the assay with SNB-75 it was 2.09 µM (inactive); in the assay with SR, 0.222 µM (active). Besides, the GI50 with TK-10 was 1.26 µM (inactive); in the assay on ACHN, 1.21 µM (inactive); in the assay with DU-145 it was 14.8 µM (inactive); in the assay on RPMI-8226 it was 0.436 µM (active); with EKVX it was 2.75 µM (inactive); in the assay on Hs-578T, 2.17 µM (inactive). In addition, the GI50 in the assay with PC-3 was 12.8 µM (inactive); in the assay on A498, 2.96 µM (inactive); in the assay with NCI-H460, 2.47 µM (inactive); in the assay with Malme-3M, 1.18 µM (inactive); in the assay with MDA-MB-231, 2.22 µM (inactive); with SK-MEL-5 it was 2.14 µM (inactive). The GI50 in the assay with 786-0 was 1.14 µM (inactive); in the assay on M14, 0.581 µM (active).
`Oc1ccc2ccccc2c1/C=C/c1ccc2c(Br)cc(Br)c(O)c2n1`: the GI50 is 8.17 µM (inactive) in the assay with HOP-62; 9.4 µM (inactive) with SK-OV-3; 4.74 µM (inactive) in the assay on A549; 4.32 µM (inactive) with SF-295; 15.2 µM (inactive) in the assay with SNB-75; 3.12 µM (inactive) in the assay with SR. Besides, the GI50 with TK-10 is 11 µM (inactive); in the assay with ACHN it was 5.6 µM (inactive); in the assay on DU-145, 12 µM (inactive); in the assay with RPMI-8226, 4.06 µM (inactive); in the assay with EKVX it was 3.11 µM (inactive); with Hs-578T, 12.6 µM (inactive). In addition, the GI50 in the assay on PC-3 was 4.57 µM (inactive); in the assay on A498 it was 5.64 µM (inactive); with NCI-H460, 1.75 µM (inactive); with Malme-3M it was 12.7 µM (inactive); in the assay with MDA-MB-231, 5.58 µM (inactive); with SK-MEL-5, 3.36 µM (inactive). Also, the GI50 was 5.2 µM (inactive) in the assay on 786-0 and 7.38 µM (inactive) in the assay with M14.
`Cc1cc(OCc2nc(N)nc(N)c2-c2ccc(Cl)c(Cl)c2)ccc1[N+](=O)[O-]`: the GI50 was 0.379 µM (active) with HOP-62; 3.01 µM (inactive) in the assay on SK-OV-3; 0.0352 µM (active) with A549; 0.0678 µM (active) with SF-295; 2.1 µM (inactive) with SNB-75; 0.0237 µM (active) in the assay with SR. For the same compound, the GI50 in the assay on TK-10 is 0.401 µM (active); with ACHN it was 0.0746 µM (active); with DU-145 it was 0.582 µM (active); in the assay on RPMI-8226, 1.46 µM (inactive); in the assay on EKVX it was 0.953 µM (active); in the assay on Hs-578T, 12.2 µM (inactive). Also, the GI50 with PC-3 was 0.467 µM (active); in the assay on A498, 0.103 µM (active); in the assay on NCI-H460, 0.0462 µM (active); with Malme-3M, 2.59 µM (inactive); in the assay on MDA-MB-231, 0.384 µM (active); in the assay on SK-MEL-5, 0.224 µM (active). For the same compound, the GI50 in the assay on 786-0 and with M14 was 0.104 µM (active) each time.
Turning to `CC(=N\N)/C(C)=N/N=C(C)/C(C)=N/N=C(C)/C(C)=N/N`, the GI50 with HOP-62, in the assay with SK-OV-3, in the assay with A549, in the assay with SF-295, in the assay on SNB-75 and in the assay on SR was > 100 µM (inactive) in each case. Also, the GI50 in the assay with TK-10, in the assay on ACHN, in the assay on DU-145, in the assay with RPMI-8226, in the assay on EKVX and in the assay with Hs-578T was > 100 µM (inactive) each time. Also, the GI50 with PC-3, with A498, in the assay on NCI-H460, in the assay with Malme-3M, with MDA-MB-231 and with SK-MEL-5 was > 100 µM (inactive) each time. In addition, the GI50 in the assay with 786-0 and in the assay with M14 was > 100 µM (inactive) throughout.
Take `CC(=O)C1=C(O)/C(=C\c2ccco2)OC1=O`: the GI50 in the assay with HOP-62, in the assay on SK-OV-3, in the assay with A549, in the assay on SF-295, in the assay with SNB-75 and in the assay on SR was > 10 µM (inactive) each time. Moreover, the GI50 in the assay on TK-10, in the assay with ACHN, with DU-145, with RPMI-8226, in the assay with EKVX and in the assay on Hs-578T was > 10 µM (inactive) each time. Further, the GI50 with PC-3, in the assay with A498, with NCI-H460, in the assay on Malme-3M, with MDA-MB-231 and with SK-MEL-5 was > 10 µM (inactive) each time. Also, the GI50 in the assay with 786-0 and in the assay on M14 was > 10 µM (inactive) throughout.
Take `CC(C)(C)c1cc(C(C)(C)C)c2sc(=O)oc2c1O`: the GI50 in the assay with HOP-62 is 17 µM (inactive); in the assay on SK-OV-3, 19.5 µM (inactive); in the assay on A549, 13.2 µM (inactive); in the assay on SF-295, 11.4 µM (inactive); in the assay with SNB-75, 13.7 µM (inactive); with SR, 4.98 µM (inactive). In addition, the GI50 in the assay on TK-10 was 11.8 µM (inactive); in the assay on ACHN, 12.1 µM (inactive); with DU-145, 17.1 µM (inactive); in the assay on RPMI-8226, 21.3 µM (inactive); with EKVX it was 15 µM (inactive); in the assay on Hs-578T it was 16.4 µM (inactive). Besides, the GI50 was 14.7 µM (inactive) with PC-3; 13.7 µM (inactive) in the assay with A498; 5.61 µM (inactive) with NCI-H460; 16.5 µM (inactive) in the assay on Malme-3M; 18.4 µM (inactive) in the assay on MDA-MB-231; 14.4 µM (inactive) in the assay on SK-MEL-5. Moreover, the GI50 in the assay with 786-0 was 16.4 µM (inactive); with M14, 17.5 µM (inactive).
Turning to `O=C(/C=C/c1ccc(Cl)cc1)c1ccc(Cl)s1`, the GI50 is > 100 µM (inactive) in the assay with HOP-62; 98.6 µM (inactive) in the assay with SK-OV-3; 62.2 µM (inactive) in the assay on A549; 78.3 µM (inactive) in the assay on SF-295; 39 µM (inactive) in the assay on SNB-75; 34.3 µM (inactive) with SR. For the same compound, the GI50 is 85.3 µM (inactive) with TK-10; 87.3 µM (inactive) in the assay on ACHN; > 100 µM (inactive) in the assay on DU-145; 17.8 µM (inactive) in the assay on RPMI-8226; 68.9 µM (inactive) in the assay with EKVX; 40.5 µM (inactive) in the assay on Hs-578T. In addition, the GI50 with PC-3 is 63 µM (inactive); in the assay on A498, 19.1 µM (inactive); with NCI-H460 it was 67.8 µM (inactive); in the assay on Malme-3M, > 100 µM (inactive); with MDA-MB-231 it was 60.7 µM (inactive); with SK-MEL-5 it was > 10 µM (inactive). The values for the GI50 with 786-0 and with M14 were 32.9 µM (inactive) and 44.1 µM (inactive), respectively.
In the case of `CC1(C)CC(O)C2=C(O1)C(=O)c1ncccc1C2=O` (stereo not given), the GI50 with HOP-62 is 1.85 µM (inactive); in the assay with SK-OV-3 it was 13.7 µM (inactive); with A549, 9.51 µM (inactive); with SF-295, 1.83 µM (inactive); in the assay with SNB-75 it was 0.53 µM (active); in the assay on SR, 2.34 µM (inactive). The GI50 was 6.46 µM (inactive) with TK-10; 2.93 µM (inactive) in the assay on ACHN; 5.07 µM (inactive) in the assay on DU-145; 2.48 µM (inactive) in the assay with RPMI-8226; 2.54 µM (inactive) in the assay with EKVX; 2.7 µM (inactive) in the assay with Hs-578T. Besides, the GI50 was 2.9 µM (inactive) in the assay on PC-3; 5.3 µM (inactive) with A498; 2.52 µM (inactive) in the assay on NCI-H460; 1.49 µM (inactive) in the assay with Malme-3M; 2.29 µM (inactive) in the assay with MDA-MB-231; 1.66 µM (inactive) in the assay with SK-MEL-5. For the same compound, the GI50 with 786-0 is 1.87 µM (inactive); with M14, 1.96 µM (inactive).
As to `COc1cc2c[n+](C)c3c4cc5c(cc4ccc3c2cc1OC)OCO5` [NITIDINE CHLORIDE], the GI50 is 2.18 µM (inactive) in the assay with HOP-62; 0.877 µM (active) with SK-OV-3; 0.18 µM (active) in the assay with A549; 5.93 µM (inactive) in the assay on SF-295; 0.22 µM (active) with SNB-75; 0.839 µM (active) in the assay on SR. In addition, the GI50 with TK-10 was 29.3 µM (inactive); in the assay on ACHN, 71.9 µM (inactive); in the assay on DU-145 it was 2.52 µM (inactive); in the assay on RPMI-8226, 2.06 µM (inactive); in the assay on EKVX, 1.7 µM (inactive); in the assay on Hs-578T, 2.9 µM (inactive). Further, the GI50 with PC-3 was 2.33 µM (inactive); in the assay on A498, 1.09 µM (active); in the assay on NCI-H460, 1.73 µM (inactive); with Malme-3M, 14.5 µM (inactive); in the assay with MDA-MB-231 it was 2.62 µM (inactive); in the assay on SK-MEL-5, 5.27 µM (inactive). For the same compound, the GI50 in the assay on 786-0 is 2.49 µM (inactive); with M14, 17.1 µM (inactive).
Regarding `CC(C)CNC(=O)O`, the GI50 with HOP-62, in the assay on SK-OV-3, with A549, in the assay with SF-295, in the assay on SNB-75 and with SR was > 100 µM (inactive) in each case. The GI50 in the assay on TK-10, in the assay with ACHN, with DU-145, in the assay on RPMI-8226, in the assay on EKVX and in the assay with Hs-578T was > 100 µM (inactive) in each case. Further, the GI50 with PC-3, in the assay with A498, in the assay with NCI-H460, in the assay with Malme-3M, in the assay with MDA-MB-231 and in the assay with SK-MEL-5 was > 100 µM (inactive) throughout. Besides, the GI50 in the assay on 786-0 and in the assay on M14 was > 100 µM (inactive) each time.
